For one series, the system named is SHSY cells. The series can be described thus: Toxicity of SZ-3 in cultured SHSY cells (MTT). The format is cell-based. As to conditions: different concentrations of SZ-3, 5-20 μM range. The procedure: The synthesized SZ-3 compound was tested for neuroprotective properties in cell-based models using a neuroblastoma cell line (SHSY) and thrombin as a stressor. Thrombin was used as a cell death inducer in cell-based models for hemorrhagic brain injury. SHSY cells were challenged by 100 U/ml thrombin and after 3 hrs treated with different concentrations of synthesized compounds. […] Cell death is observed through fluorescence.
All types of cells used in these examples were assayed for viability and proliferation after 24-72 h using the MTT or CellTiter-Glo Luminescent assay Promega (Madison, Wis.). Cells after treatment were incubated with MTT reagent for 3 h in 5% CO2 at 37° C. The medium was replaced with DMSO to dissolve formazan crystals. Absorbance was read at 570 nm to quantify cell viability. CellTiter-Glo reagents were used in some experiments by adding equal amounts of reagent to the amount of medium containing cells for a 96-well plate. Contents were mixed for 2 minutes then incubated the plate for 10 minutes at room temperature to stabilize luminescent signal.

A further series concerns mice with hemorrhage. The series can be described thus: Experimental hemorrhage in mice by collagenase injection into the striatum. The format is in vivo. The method, then:
Mice were subjected to experimental hemorrhage by injecting collagenase into the striatum. After 3 h of collagenase injection, mice were treated with two concentrations of SZ-3 (1 and 10 mg/kg, i.p.) followed by 12 hourly injections until day 3. Mice were evaluated for baseline rotarod and grip strength 24 h prior and after hemorrhage and then after every 24 hs for three days. N=12 per group. FIG. 12A depicts a timeline of the experiment, and photographs of the mice.
The top column is Sham, the second column is vehicle, the third column is SZ-3 (1 mg/kg), and the fourth column is SZ-3 (10 mg/kg).
Finally, it was desired to elucidate if treatment with SZ-3 can mitigate the hemorrhage induced behavioral deficits. Hemorrhage was induced in mice, and the mice were then treated with SZ-3. Mice were subjected to experimental hemorrhage by injecting collagenase into the mice striatum. Collagenase model simulates the hemorrhage by inducing vessel damage resulting in localized hematomas. This model is widely used in hemorrhagic stroke research.
Mice were treated with two concentrations of SZ-3 (1 and 10 mg/kg, i.p;) immediately after 3 h of hemorrhage and then after every 12 h for 3 days (FIG. 12A). […] Normally, the mice are substantially paralyzed a short time after the stroke.

For series [1], the system named is NO release from HMC3 cells. The series is described as follows: Griess assay for NO release from LPS-challenged HMC3 cells. Type of series: cell-based, human. The procedure: Cultured HMC3 cells were challenged with 0.1 μg/mL of LPS and treated with different concentrations of SZ-3 concurrently. At the end of the experiment cells were harvested for MTT by CellTiter-Glo Luminescent assay (FIG. 9A), Griess assay for NO release (FIG. 9B), and TNF-α by ELISA (FIG. 9C).
After hemorrhage, activated microglia release proinflammatory mediators such as cytokines, chemokines, and nitric oxide (NO) leading to secondary injury which may be worse than the initial insult and may result in severe neurological deficits and death. In order to test whether the synthesized compound will reduce or stop microglial activation and inflammation after hemorrhage, whether the compound poses toxicity to microglia was first assessed. Human microglial cell line (HMC3) was challenged or activated with lipopolysaccharide (LPS) ([…]) and treated with different concentrations of the SZ-3 (10 and 5 μM) concurrently. CellTiter-Glo luminescent assay was used for cell viability; Griess reagent assay was used for NO release and ELISA was used for TNF-α estimations.
Next, a NO release assay was performed to determine if SZ-3 can reduce the NO release. […] Next, whether the major inflammatory cytokine TNF-α is reduced with the SZ-3 treatment was evaluated. As a consequence of microglial activation, TNF-α levels are increased, and the same pattern was observed when cells were challenged with LPS. There was a significant increase in TNF-α after LPS challenge.
NO was indirectly assayed through the measurement of nitrite by mixing a sample of culture medium with an equal volume of Griess reagent (0.3% naphthylethylenediamine dihydrochloride, 3% sulfanilamide, 8% phosphoric acid) and reading at 540 nm.
(The Griess reaction detects nitrite, a stable product of nitric oxide.)

The next series deals with NF-κB. The series is described as follows: WB of NF-κB in thrombin-challenged HMC3 cells. As to conditions: thrombin 100 U/ml, SZ-3 10, 5 μM after 3 h, WB after 24 h. Type of series: cell-based, human. The method, then:
FIG. 11: SZ-3 reduces inflammation through NF-κB mechanism. Cultured HMC3 cells were challenged with thrombin 100 U/ml and after 3 h were treated with different concentrations of SZ-3 (10 and 5 μM). Cells were harvested for WB analysis after 24 h.
WB was used to assay the expression levels of cofilin, phosphocofilin, and NF-κB. […] Without wishing to be bound by theory, the role of phosphocofilin is not fully understood, but it is believed that it is decreased in stress conditions and its restoration is beneficial.
HMC3 cells were cultured in DMEM/F12 medium supplemented with 5% horse serum (HS), 10% fetal bovine serum (FBS), and 1% penicillin/streptomycin. Cells were stimulated with 100 U/ml thrombin from bovine plasma (Sigma) and treated without (vehicle) or with different concentrations of SZ-3.
Cells were harvested and washed with ice-cold lysis buffer (250 mM sucrose, 1.5 mM MgCl2, 10 mM KCl, 20 mM HEPES 7.6 pH, 1 mM of dithiothreitol, 1 mM phenylmethylsulfonyl fluoride, 50 mM NaF, 10 mM sodium orthovanadate, 20 mM sodium pyrophosphate, and protease inhibitors) for 15 min then supplemented with 5% of Nonidet P-40 for 2 min. […] Glyceraldehyde 3-phosphate dehydrogenase (GAPDH) or beta-actin were used as the loading control, and band intensity analyzed using Bio-Rad Chemi-Doc XRS Image Lab Software.

“Also recorded” adds a separate entry of the source.

The source of these data is patent US11548850B2, “Development of a cofilin inhibitor for the treatment of hemorrhagic brain injury-induced neuroinflammation” (The University of Toledo, priority 2019, dated 2023).

In the case of `CC(C)(C)c1ccc(O)c(CN(Cc2cc(C(C)(C)C)ccc2O)C2CCC(NC(N)=O)CC2)c1` (stereo not shown) [SZ-3, 4-{bis[(5-tert-butyl-2-hydroxyphenyl)methyl]amino}cyclohexyl urea], the “toxicity in SHSY cells” value with SHSY cells is “did not show any signs of toxicity; also recorded: No toxicity was observed”. The “cell death after experimental ICH” value in the series on mice with hemorrhage (FIG. 13, SZ-3 1 mg/kg and 10 mg/kg versus vehicle, fluorescence) is “barely any cell death; also recorded: reduces cell death after experimental ICH”. The “motor function assessed by rotarod” value in the series on mice with hemorrhage (SZ-3 1 and 10 mg/kg i.p. 3 h after hemorrhage then every 12 h for 3 days, day 2 and 3) is “significantly reversed”. In addition, the grip strength entry in the series with mice with hemorrhage (SZ-3 1 and 10 mg/kg i.p., after hemorrhage) is given as “showed enhanced grip strength”. In addition, the “lesions in the mice” value in the series on mice with hemorrhage (mice treated with SZ-3) is listed as “no lesions formed”. Further, the “grip of sham mice” value with mice with hemorrhage (sham mice, no induced hemorrhage) is “improved the grip of the mice even without hemorrhage”. Also, the NO release entry in series [1] (LPS 0.1 μg/mL, different concentrations of SZ-3) is on record as “significantly reduced NO”; in series [1] (LPS, SZ-3 5 μM, p<0.001) it was “significantly reduced NO release”; in series [1] (LPS, SZ-3 10 μM) it was “significance was at p<0.01”. In addition, the NF-κB expression level entry with NF-κB is “significantly reduced”.
